Experimental data from patent US12077503B2, “Substituted cyclic amides and their use as herbicides” (FMC CORPORATION, priority 2015, dated 2024).

How the values were obtained:
Type in all cases: in vivo
[1] = system: barnyardgrass (Echinochloa crus-galli); assay: Test B flooded paddy test; conditions: Echinochloa crus-galli, Flood, 250 g ai/ha; scale of 0 to 100 where 0 is no effect and 100 is complete control; read-out: Barnyardgrass plant response rating
In short: (§1)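 Greenhouse paddy pots with 2-leaf stage plants received compound by direct addition to floodwater 3 cm deep, kept at that level. Scored visually at 13–15 d versus controls (0 no effect; 100 complete control).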

[2] = system: sedge, umbrella (small-flower umbrella sedge, Cyperus difformis); assay: Test B flooded paddy test; conditions: Cyperus difformis, Flood, 250 g ai/ha; scale of 0 to 100 where 0 is no effect and 100 is complete control; read-out: Sedge, Umbrella plant response rating
In short: as §1

[3] = system: ducksalad (Heteranthera limosa); assay: Test B flooded paddy test; conditions: Heteranthera limosa, Flood, 250 g ai/ha; scale of 0 to 100 where 0 is no effect and 100 is complete control; read-out: Ducksalad plant response rating
In short: as §1

[4] = system: rice (Oryra sativa); assay: Test B flooded paddy test; conditions: Oryza sativa, Flood, 250 g ai/ha; scale of 0 to 100 where 0 is no effect and 100 is complete control; read-out: Rice plant response rating
In short: as §1

[5] = system: corn (Zea mays); assay: Test A postemergence; conditions: Zea mays, post-emergence, 240 h, 125 g ai/ha, postemergence, visual injury rating after approximately 10 d; read-out: Corn plant response rating (0 to 100 scale, 0 no effect, 100 complete control)
In short: (§2)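 Seeded soil received test chemicals as a preemergence directed spray, and seedlings at one to two leaves, 2–10 cm tall, received them postemergence, in a non-phytotoxic, surfactant-containing solvent mixture. Pots were held in a greenhouse for approximately 10 d, then rated for injury from 0, no effect, to 100, complete control.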

[6] = system: barnyardgrass (Echinochloa crus-galli); assay: Test A postemergence; conditions: Echinochloa crus-galli, post-emergence, 240 h, 125 g ai/ha, postemergence, visual injury rating after approximately 10 d; read-out: Barnyardgrass plant response rating (0 to 100 scale, 0 no effect, 100 complete control)
In short: as §2

[7] = system: Kochia (Kochia scoparia); assay: Test A postemergence; conditions: Bassia scoparia, post-emergence, 240 h, 125 g ai/ha, postemergence, visual injury rating after approximately 10 d; read-out: Kochia plant response rating (0 to 100 scale, 0 no effect, 100 complete control)
In short: as §2

[8] = system: Galium (catchweed bedstraw, Galium aparine); assay: Test A postemergence; conditions: Galium, post-emergence, 240 h, 125 g ai/ha, postemergence, visual injury rating after approximately 10 d; read-out: Galium plant response rating (0 to 100 scale, 0 no effect, 100 complete control)
In short: as §2

[9] = system: pigweed (Amaranthus retroflexus); assay: Test A postemergence; conditions: Amaranthus retroflexus, post-emergence, 240 h, 125 g ai/ha, postemergence, visual injury rating after approximately 10 d; read-out: Pigweed plant response rating (0 to 100 scale, 0 no effect, 100 complete control)
In short: as §2

[10] = system: barnyardgrass (Echinochloa crus-galli); assay: Test A preemergence; conditions: Echinochloa crus-galli, pre-emergence, 240 h; for pest or weed control at 125 g/ha: 125 g ai/ha, preemergence, 0 to 100 scale where 0 is no effect and 100 is complete control, read-out: Barnyardgrass plant response rating; for pest or weed control at 500 g/ha: 500 g ai/ha, Preemergence, visual injury vs untreated controls after approximately 10 d, read-out: Barnyardgrass plant response rating (0 to 100 scale where 0 is no effect and 100 is complete control)
In short: as §2

[11] = system: ryegrass, Italian (Italian ryegrass, Lolium multiflorum); assay: Test A preemergence; conditions: Lolium multiflorum, pre-emergence, 240 h; for pest or weed control at 125 g/ha: 125 g ai/ha, preemergence, 0 to 100 scale where 0 is no effect and 100 is complete control, read-out: Ryegrass, Italian plant response rating; for pest or weed control at 500 g/ha: 500 g ai/ha, Preemergence, visual injury vs untreated controls after approximately 10 d, read-out: Ryegrass, Italian plant response rating (0 to 100 scale where 0 is no effect and 100 is complete control)
In short: as §2

[12] = system: giant foxtail (Setaria faberii); assay: Test A preemergence; conditions: Setaria faberi, pre-emergence, 240 h; for pest or weed control at 125 g/ha: 125 g ai/ha, preemergence, 0 to 100 scale where 0 is no effect and 100 is complete control, read-out: Foxtail, Giant plant response rating; for pest or weed control at 500 g/ha: 500 g ai/ha, Preemergence, visual injury vs untreated controls after approximately 10 d, read-out: Foxtail, Giant plant response rating (0 to 100 scale where 0 is no effect and 100 is complete control)
In short: as §2

[13] = system: Kochia (Kochia scoparia); assay: Test A preemergence; conditions: Bassia scoparia, pre-emergence, 240 h; for pest or weed control at 125 g/ha: 125 g ai/ha, preemergence, 0 to 100 scale where 0 is no effect and 100 is complete control, read-out: Kochia plant response rating; for pest or weed control at 500 g/ha: 500 g ai/ha, Preemergence, visual injury vs untreated controls after approximately 10 d, read-out: Kochia plant response rating (0 to 100 scale where 0 is no effect and 100 is complete control)
In short: as §2

[14] = system: ragweed (common ragweed, Ambrosia elatior); assay: Test A preemergence; conditions: Ambrosia artemisiifolia, pre-emergence, 240 h; for pest or weed control at 125 g/ha: 125 g ai/ha, preemergence, 0 to 100 scale where 0 is no effect and 100 is complete control, read-out: Ragweed plant response rating; for pest or weed control at 500 g/ha: 500 g ai/ha, Preemergence, visual injury vs untreated controls after approximately 10 d, read-out: Ragweed plant response rating (0 to 100 scale where 0 is no effect and 100 is complete control)
In short: as §2

[15] = system: pigweed (Amaranthus retroflexus); assay: Test A preemergence; conditions: Amaranthus retroflexus, pre-emergence, 240 h; for pest or weed control at 125 g/ha: 125 g ai/ha, preemergence, 0 to 100 scale where 0 is no effect and 100 is complete control, read-out: Pigweed plant response rating; for pest or weed control at 500 g/ha: 500 g ai/ha, Preemergence, visual injury vs untreated controls after approximately 10 d, read-out: Pigweed plant response rating (0 to 100 scale where 0 is no effect and 100 is complete control)

| SMILES | pest or weed control at 250 g/ha [1] [%] | pest or weed control at 250 g/ha [2] [%] | pest or weed control at 250 g/ha [3] [%] | pest or weed control at 250 g/ha [4] [%] | plant injury at 125 g/ha [5] [%] | pest or weed control at 125 g/ha [6] [%] | pest or weed control at 125 g/ha [7] [%] | pest or weed control at 125 g/ha [8] [%] | pest or weed control at 125 g/ha [9] [%] | pest or weed control at 125 g/ha [10] [%] | pest or weed control at 500 g/ha [10] [%] | pest or weed control at 125 g/ha [11] [%] | pest or weed control at 500 g/ha [11] [%] | pest or weed control at 125 g/ha [12] [%] | pest or weed control at 500 g/ha [12] [%] | pest or weed control at 125 g/ha [13] [%] | pest or weed control at 500 g/ha [13] [%] | pest or weed control at 125 g/ha [14] [%] | pest or weed control at 500 g/ha [14] [%] | pest or weed control at 125 g/ha [15] [%] | also measured |
| --- | --- | --- | --- | --- | --- | --- | --- | --- | --- | --- | --- | --- | --- | --- | --- | --- | --- | --- | --- | --- | --- |
| COc1ccccc1NC(=O)[C@H]1C(=O)N(C)C[C@@H]1c1ccc(C(F)(F)F)cc1 [Compound 843] | 0 | 0 | 20 | 0 | 0 | 40 | 40 | 30 | 20 | 60 | 80 | 0 | 50 | 90 | 90 | 60 | 70 | 0 | 30 | 0 | pest or weed control at 500 g/ha [15]: 40% |
| CN1CC(c2cccc(I)c2)C(C(=O)Nc2ccccc2F)C1=O (stereo not drawn) [Compound 846] | 60 | 0 | 60 | 0 | 60 | 90 | 40 | 0 | 0 | 90 | 90 | 60 | 70 | 90 | 90 | 20 | 70 | 0 | 0 | 0 | pest or weed control at 500 g/ha [15]: 0% |
| Cc1cc(F)cc([C@H]2CNC(=O)[C@@H]2C(=O)Nc2ccc(F)c(F)c2F)c1 [Compound 848] | 60 | 0 | 100 | 0 | 0 | 90 | 0 | 30 | 0 | 90 | 90 | 40 | 50 | 90 | 90 | 40 | 70 | 0 | 30 | 40 | pest or weed control at 500 g/ha [15]: 50% |
| Cc1cc(F)cc([C@H]2CN(C)C(=O)[C@@H]2C(=O)Nc2cccc(F)c2F)c1 [Compound 849] | 75 | 0 | 100 | 15 | 70 | 90 | 0 | 60 | 0 | 90 | 90 | 80 | 90 | 90 | 90 | 80 | 80 | 80 | 90 | 40 | pest or weed control at 500 g/ha [15]: 50% |
| Cc1cc(F)cc([C@H]2CN(C)C(=O)[C@@H]2C(=O)Nc2ccccc2F)c1 [Compound 850] | 70 | 0 | 90 | 0 | 30 | 90 | 0 | 30 | 0 | 90 | 90 | 70 | 70 | 90 | 90 | 30 | 70 | 0 | 0 | 20 | pest or weed control at 500 g/ha [15]: 30% |
| COc1ccc([C@H]2CN(C)C(=O)[C@@H]2C(=O)Nc2ccccc2F)cc1OC [Compound 852] | 40 | 0 | 40 | 0 | 0 | 90 | 0 | 0 | 0 | 90 | 90 | 0 | 30 | 90 | 90 | 0 | 20 | 0 | 0 | 20 | pest or weed control at 500 g/ha [15]: 40% |
